Experimental data as given in patent publication US5571786A, “Use of protein C or the activation peptide of protein C for preparing a pharmaceutical preparation” (Immuno Aktiengesellschaft, priority 1990, dated 1996).
Values joined by “and” are separate entries in the source; they are usually repeats but may differ in a detail not shown here. Equal entries are not always repeated.

Assays:
inflamed rat paw model = experiment: inflamed rat paw model: pain threshold after local carrageenan (Randall and Selitto); type: in vivo; conditions: for antagonism of the anti-nociceptive effect of protein C: β-blocking agent given with protein C; for Pain threshold: 3 hrs after carrageenan, protein C 800 U/kg
Excerpt: See, Kirchhoff et al., Neuroscience Lett. 111:206-210 (1990). Subcutaneous administration of carrageenan into the rat paw produces an inflammatory edema characterized by infiltration of neutrophils, plasma extravasation, release and synthesis of histamine, bradykinins and prostaglandin E2. Id. As such, the rat paw is a recognized model of the inflammatory process and may be utilized for studying the nociceptive effects attendant thereto. Id. Thus, the rat paw provides a recognized model for evaluating the anti-nociceptive effects of protein C and/or the activation peptide of protein C according to the present invention.
The pain threshold was measured in a manner analogous to the method described by Randall and Selitto (Randall LO and Selitto JJ: A method for measurement of analgesic activity on inflamed tissue, Arch. Int. Pharmacodyn. 111, 409-419, 1957). To this end, a mercury manometer was connected to a 10 ml syringe whose plunger was equipped with a short bullet-shaped peg. Increasing pressure was applied to the rat's paw through this syringe (20 mmHg/s). The pain threshold was defined as the pressure in mmHg required to induce a flight (struggle) reaction.
Female Sprague-Dawley rats weighing between 250 and 350 g were used. Inflammation was produced by the intraplanter (i.pl.) injection of 3 mg carrageenan (Sigma Chemical Co., Cat. No., C-1013) suspended in 100 μl isotonic saline solution (0.9%) into the rat's paw.
The pain threshold was measured before (control value) and every hour up to six hours after the injection of carrageenan. The pain threshold measured after carrageenan injection was expressed in percent of the control value.
Unless otherwise specified, protein C was intravenously injected into a vein of the tail immediately upon the carrageenan injection. The injection volume was 2 ml/kg.
A dose response curve for protein C administered i.v. and protein C (i.v.) immediately followed by a solution of 1 mg/kg antibody HPC-4 (i.v.) was determined. The experiments were carried out essentially as set forth in Example 4.
The anti-nociceptive effects of the activation peptide of protein C (SEQ. ID. NO. 1) prepared as described in Example 7 were determined essentially as described in Examples 4 and 6. In the test animals, the […], each, in a constant injection volume of 2 ml/kg, simultaneously with intraplantar (i.pl.) administration of carrageenan into the rat's paw to induce an inflammatory response and pain. In a second set of test animals, antibody HPC-4 (1 mg/kg) was administered i.v. immediately following i.v. administration of the peptide (SEQ. ID. NO. 1). The anti-nociceptive effects of the peptide (SEQ. ID. NO. 1) administration and antagonism thereof by antibody HPC-4 as measured 6 hours later are shown in FIG. 3.

[1] = system: thrombin-induced enhanced vascular permeability; experiment: thrombin-induced enhanced vascular permeability (Evan's Blue wheals); type: in vivo, guinea pigs
Procedure: (§1) The effect of protein C on capillary leakage in guinea pigs was studied in order to confirm the efficacy of protein C in antagonizing enhanced vessel permeability in anesthetized guinea pigs. The study was carried out as follows:
(§2) After intravenous administration of Evan's Blue, anesthetized guinea pigs received either a protein C concentrate or a formulation buffer. Thereafter, the test animals were treated with histamine or thrombin intracutaneously to induce enhanced vessel permeability, or with saline as a control. The animals were then examined visually for the occurrence of discoloration of the resulting wheals. The results are depicted in FIG. 4 (histamine treatment, protein C or saline), FIG. 5 (thrombin treatment, protein C or saline) and FIG. 6 (thrombin treatment, buffer or saline).
(§3) In these studies, a colorless wheal was recorded as a negative observation (i.e., no disturbance in permeability), whereas a blue skin coloration at the injection site was defined as a positive observation (i.e. increased vessel permeability). The percentage of positive wheals among total wheals produced by the same substance and does within each group of treated animals (n=12 per treatment group) was calculated. […]

[2] = protein C activity, aminolytic assay after activation by Protac; type: biochemical; conditions: finished lyophilized preparation; 1 unit = protein C activity in 1 ml normal plasma
Procedure: The prothrombin complex concentrate was dissolved in the absorption buffer of Example 1, with about 10 g of the prothrombin complex concentrate being employed for a 20 ml monoclonal antibody column. Subsequently, the dissolved prothrombin complex concentrate was filtered, centrifuged at 20,000 r.p.m. for 15 min. and sterilely filtered through a 0.8 μm filter. The sterilely filtered and dissolved prothrombin complex concentrate was applied to the column at a flow rate of 10 ml/h. Subsequently, the column was washed free of protein with the washing buffer of Example 1, the bound protein C was eluted by means of the elution buffer of Example 1 at a flow rate of 5 ml/h and the fractions containing eluted protein C were collected and pooled. The eluted protein C was dialyzed against a buffer (0.2 mol/1 Tris, 0.15 mol glycine and 1 mmol EDTA, pH 8.3). Protein C antigen concentration was determined using the method described by Laurell, and protein C activity was determined using Protac activation.
The lyophilized, virus inactivated material was then dissolved in a sterile isotonic NaCl solution and any antibodies or serum amyloid P potentially present in the preparation were eliminated by means of ion exchange chromatography on a Q-Sepharose column. […] Neither murine immunoglobulin nor Factors II, VII, IX and X could be detected. […]

perivascular leukocytes = experiment: histological examination of the rat paws; type: in vivo; conditions: rat paws after protein C, compared to untreated animals
Excerpt: Thus, protein C appears to have an effect on vessel permeability, which allows the migration of leukocytes through the blood vessel into the perivascular region.

[3] = system: histamine-induced enhanced vascular permeability; experiment: histamine-induced enhanced vascular permeability (Evan's Blue wheals); type: in vivo, guinea pigs
Procedure: as §1, §2, §3

coronary blood flow = conditions: intracoronary administration; cited from earlier work
endotoxin shock = conditions: Taylor et al. 1987; cited from earlier work
[4] = system: thrombus formation on prosthetic vascular grafts; conditions: infusion; Gruber et al. 1989; cited from earlier work

Compound: CC(C)NCC(O)COc1cccc2[nH]ccc12 (centres unmarked) [pindolol, reference compound]
- antagonism of the effect of protein C in sympathectomized animals (inflamed rat paw model; reserpine and alpha-methyl-p-tyrosine treated): completely antagonizes the effect of protein C
- antagonism of the anti-nociceptive effect of protein C (inflamed rat paw model): antagonize the effect of protein C in a dose-dependent manner

Compound: CC(Cc1ccc(O)cc1)NCC(O)c1cc(O)cc(O)c1 (centres unmarked) [fenoterol, reference compound]
- anti-nociceptive effect (inflamed rat paw model; i.v., either 5 mg/kg at the beginning of the assay or 3 mg/kg at the 3 hr time point): marked anti-nociceptive effect

Compound: CC(C)NCC(O)COc1cccc2ccccc12 (centres unmarked) [propranolol, reference compound]
- antagonism of the anti-nociceptive effect of protein C (inflamed rat paw model): antagonizes the anti-nociceptive effect of protein C

Compound: protein C: Highly purified human protein C zymogen from prothrombin complex concentrate, purified by monoclonal antibody affinity chromatography, virus inactivated
- shift of the thrombin dose-response curve to the right (factor) ([1]; 800 IU protein C/Kg i.v., % positive wheals, FIG. 5): 9
- effect on thrombin-increased endothelial permeability ([1]; pretreatment with protein C): effective in preventing the effects of both histamine and thrombin on increased endothelial permeability
- specific activity [2]: 14 units protein C per mg
- number of perivascular leukocytes (perivascular leukocytes): reduced number of perivascular leukocytes compared to the untreated animals
- Pain threshold (inflamed rat paw model; % of the pain threshold (control value)): 65 ± 2.0% and 60 ± 6%
- Pain threshold (inflamed rat paw model; animals treated with reserpine and alpha-methyl-p-tyrosine): 106.7 ± 18.1%
- anti-nociceptive effect (inflamed rat paw model; protein C i.v. immediately upon carrageenan, 8 to 800 U/kg, FIG. 1): significant, dose-dependent anti-nociceptive effect
- signs of inflammation, such as oedema (inflamed rat paw model; protein C intravenously, carrageenan intraplantar): signs of inflammation, such as oedema, were reduced
- anti-nociceptive effect after chemical sympathectomy (inflamed rat paw model; reserpine 7.5 mg/kg i.p. and alpha-methyl-p-tyrosine 250 mg/kg i.p.): still acts as a highly effective anti-nociceptive
- anti-nociceptive effect (inflamed rat paw model; subcutaneous administration): also detectable with subcutaneous administration
- shift of the histamine dose-response curve to the right (factor) ([3]; 800 IU protein C/Kg i.v., % positive wheals, FIG. 4): 4
- effect on histamine-increased endothelial permeability ([3]; pretreatment with protein C): effective in preventing the effects of both histamine and thrombin on increased endothelial permeability

Compound: activated protein C
- coronary blood flow (coronary blood flow): increase in coronary blood flow
- protection against coagulopathic and lethal effects of endotoxin shock (endotoxin shock): protect animals against the coagulopathic and lethal effects of endotoxin shock
- thrombotic occlusion [4]: Thrombotic occlusion was prevented

Compound: NH2 -Asp-Thr-Glu-Asp-Gln-Glu-Asp-Gln-Val-Asp-Pro-Arg-COOH (H-DTEDQEDQVDPR-OH) [activation peptide of protein C]
- anti-nociceptive effect (inflamed rat paw model; peptide i.v. 3.125 to 100 μg/kg, measured 6 hours later, FIG. 3): has an anti-nociceptive effect
